Laboratory results from patent publication US20200023036A1, “PHARMACEUTICAL COMPOSITION FOR PREVENTING OR TREATING INFLAMMATORY RESPIRATORY DISEASE CONTAINING FUSION PROTEIN IN WHICH CELL-PENETRATING PEPTIDE AND CTCTLA4 PEPTIDE ARE FUSED AS ACTIVE INGREDIENT” (IUCF-HYU (INDUSTRY-UNIVERSITY COOPERATION FOUNDATION HANYANG, priority 2017, published 2020).

Assays:
[1] = test system: IL-13, IL-4 and IFN-γ; assay: Cytokine expression by ELISA in bronchoalveolar lavage and lung tissues, comparison with CTLA4-Ig (Test Example 5); assay type: in vivo, BALB/c mice; settings: 10 μg intranasal together with GCE
Description: (§1) The mice reared according to 1) of Experimental methods were used. Specifically, 120 μg of GCE prepared according to 2) of Experimental methods was intranasally administered to the 8-week-old BALB/c mice twice a week for 3 weeks.
(standard error of mean). *p<0.05, **p<0.01.

[2] = test system: GCE-induced allergic asthma animal model; assay: Cell number and immune cell distribution in bronchoalveolar lavage fluid (Test Example 4); assay type: in vivo, BALB/c mice; settings: 10 μg intranasal together with GCE; versus GCE-administered PBS test group
Description: In order to collect the bronchoalveolar lavage fluid, the mouse lungs were washed with 1 mL of HBSS (Hank's balanced salt solution) with an intubated tube fluid. Total cells in the lavage fluid were counted with a hemocytometer. Then, the lavage fluid was centrifuged and the cells were prepared on slides after centrifugation at 1000 rpm for 3 minutes. The slides were stained with a Hemacolor staining kit (Merck Millipore, Darmstadt, Germany). The cells were differentially counted until the total counted number reached at least 200 according to the standard hemocytologic procedures to count macrophages and eosinophils.
Experimental conditions were designed as in Test Example 2. A bronchoalveolar lavage fluid was obtained from each test group and control group of Test Example 2 and the inhibitory effect of eosinophil infiltration and Th2 cytokine production was investigated. The details of the design of experiments are as follows.
as §1, with “weeks. 10 μg of dNP2-ctCTLA-4 (Example 2), dNP2-EGFP (Comparative Example 3) or a vehicle (PBS) was intranasally administered together when the GCE was administered to the mice.” for “weeks.”
15 minutes after the experiment was completed, a bronchoalveolar lavage fluid (BALF) was obtained by injecting 1 mL of PBS twice to each animal (see 5) of Experimental methods).

[3] = test system: IL-5, IL-13, IL-4 and IFN-γ; assay: Cytokine expression by ELISA in bronchoalveolar lavage and lung tissues (Test Example 4); assay type: in vivo, BALB/c mice; settings: 10 μg intranasal together with GCE
Description: The […] obtained by the method of 5) was homogenized using the T-PER tissue protein extraction reagent (Thermo Fisher Scientific, MA, US) to prepare a suspension. The suspension was incubated at 4° C. for 30 minutes and then centrifuged at 2500 rpm for 10 minutes. The supernatant was filtered with a 0.45-μm filter to analyze cytokine expression levels.
as §1, with “weeks. 10 μg of dNP2-ctCTLA-4 (Example 2), dNP2-EGFP (Comparative Example 3) or a vehicle (PBS) was intranasally administered together when the GCE was administered to the mice.” for “weeks.”
The concentration of IL-5, IL-13, IL-4 and IFN-γ was analyzed with the ELSISA kit and the result was normalized to the total protein concentration of the tissue. The protein concentration was quantified by the Bradford assay. n=5 per each group and the results are presented as mean±s.e.m. (standard error of mean). *p<0.05, **p<0.01.
In this experiment, the bronchoalveolar lavage (BAL) and lung tissues were recovered from each test group and control group and the expression level of IL-13, IL-4 and Th2 cytokines was compared.

[4] = test system: GCE-induced allergic asthma animal model; assay: H&E lung tissue observation and airway epithelial thickness, comparison with CTLA4-Ig (Test Example 5); assay type: in vivo, BALB/c mice
[5] = test system: naive CD4 T cells differentiated into Th2 cells; assay: Th2 differentiation assay (Test Example 6); assay type: cell-based, BALB/c mice; settings: 1 μM for 6 days; anti-CD3/CD28, IL-4; flow cytometry
Description: Mouse naive CD4 T cells were isolated from the 8-week-old BALB/c mice by magnetic-activated cell sorting (MACS, naive CD4 T cell isolation kit, mouse, Miltenyi, Bergisch Gladbach, Germany).
Then, 2.5×10^5 of the isolated cells were seeded onto anti-CD3/anti-CD28 antibody (0.1 μg/mL)-coated 96-well plates. The cells were incubated in the presence of anti-IFN-γ neutralizing antibody (5 μg/mL), IL-2 (50 U/mL), IL-4 (30 ng/mL) and PBS. After adding 1 μM dNP2-EGFP (Comparative Example 3) or 1 μM dNP2-ctCTLA-4 (Example 2) to each well for 6 days, the cells were analyzed by flow cytometry after re-stimulation, protein transport inhibitor treatment and intracellular staining with anti-mouse IFN-γ-FITC and anti-mouse IL-4-PE FACS antibodies.
The experiment was conducted according to 8) of Experimental methods.
MACS-sorted CD4^+ CD62L^hiCD44^− native CD4 T cells isolated from 8-week-old BALB/c mice were used. They were differentiated into Th2 cells by addition of IL-4 during activation with anti-CD3/CD28 antibodies for 6 days.
The result is presented as mean±s.e.m. (standard error of mean) (n=3). **p<0.01. NA (non-activated) denotes a negative control group, not stimulated by cytokines or anti-TcR antibody.

[6] = test system: GCE-induced allergic asthma animal model; assay: Lung tissue observation with PAS and Masson's trichrome stain in GCE-induced allergic asthma animal model (Test Example 3); assay type: in vivo, BALB/c mice; settings: 10 μg intranasal together with GCE
Description: The lung was fixed in a 10% formalin solution for a day and tissues were prepared as paraffin blocks and sectioned to 3- to 4-μm thickness using a microtome. The prepared slides were stained with PAS (periodic acid-Schiff) stain or Masson's trichrome stain.
To evaluate the inhibitory effect of the dNP2-ctCTLA-4 fusion protein on the pathophysiology of lungs in the GCE-induced allergic asthma animal model, the lung tissues of each test group and control group of Test Example 2 was observed according to 7) of Experimental methods.
The lung tissue of each test group and control group of Test Example 3 was imaged after staining with PAS. The red region indicates mucus-secreting goblet cells.
The lung tissues of each test group and control group of Test Example 3 were imaged after staining with Masson's trichrome stain. The blue region indicates collagen deposition and fibrosis.

[7] = test system: GCE-induced allergic asthma animal model; assay: Airway hyperresponsiveness (AHR) to methacholine in GCE-induced allergic asthma animal model (Test Example 2); assay type: in vivo, BALB/c mice; settings: 10 μg intranasal together with GCE twice a week for 3 weeks; measured on day 21
Description: The mice reared according to the method of 1) were used. Specifically, the 8-week-old BALB/c mice were sensitized by intranasal administration of PBS (sham) or 120 μg of GCE prepared according to the method of 2) twice a week for 3 weeks.
AHR was measured 4 days after the last GCE administration using a flexiVent 5.1 small-animal ventilator (SCIREQ, Montreal, PQ, Canada). The mice were placed in a whole body plethysmograph (Buxco, USA) and 0.4 mL of methacholine solutions at various concentrations (3.1, 6.25, 12.5, 25 or 50 mg/mL) in aerosols were administered through inhalation for 10 seconds. Penh was measured 1 minute and 2 minutes after the administration and the mean value was determined as the Penh (enhanced pause) value for the corresponding methacholine administration dosage.
The mice reared according to 1) of Experimental methods were used. Specifically, PBS (sham) or 120 μg of GCE prepared according to 2) of Experimental methods was intranasally administered to the 8-week-old BALB/c mice twice a week for 3 weeks. […] On day 21, the mice were anesthetized and hyperresponsiveness to methacholine (MeCh) was measured (see 4) of Experimental methods).
The mice reared according to 1) of Experimental methods were used. […]
On day 21, the animals were anesthetized and hyperresponsiveness to methacholine (MeCh) was measured (see 4) of Experimental methods).

dNP2-ctCTLA-4: fusion protein: cell-penetrating peptide dNP2 (SEQ ID NO 1) linked to the N-terminal of the ctCTLA-4 peptide (SEQ ID NO 2) (KIKKVKKKGRKGSKIKKVKKKGRKKMLKKRSPLTTGVYVKMPPTEPECEKQFQPYFIPIN; Synthetic peptide sequence, dNP2 peptide; Synthetic peptide sequence, ctCTLA-4 peptide)
levels of IL-13 and IFN-γ in the bronchoalveolar lavage (BAL) and lung tissues [1]: significantly decreased levels of IL-13 and IFN-γ | decrease in the number of eosinophils in the bronchoalveolar lavage (BAL) [2]: ≥ 3 times | decrease in the number of macrophages in the bronchoalveolar lavage (BAL) [2]: ≥ 3 times | decrease in the number of total cells in the bronchoalveolar lavage (BAL) [2]: ≥ 3 times | level of IFN-γ ([3]; ELISA): decreased level of IFN-γ | decreased expression levels of IL-5, IL-13, IL-4 and IFN-γ in lung tissues ([3]; ELISA normalized to total protein, versus PBS test group): > 2 times | decreased expression levels of IL-5, IL-13, IL-4 and IFN-γ in the bronchoalveolar lavage (BAL) ([3]; ELISA, versus PBS test group): more than 3 times | physiological features of the respiratory epithelium: cell infiltration and airway epithelium thickening (H&E) ([4]; 10 μg intranasal together with GCE): improved physiological features of the respiratory epithelium | pharmacological effect relative to the existing CTLA4-Ig ([4]; intranasal administration, GCE-induced allergic asthma animal model): 2-3 times | cytokine production (IL-4 and/or IL-13-producing CD4 T cells) in Th2 differentiation [5]: significantly reduced cytokine production | fibrotic area around the bronchial regions (Masson's trichrome stain) [6]: significantly reduced fibrotic area | inflammatory cells and goblet cells in the lungs (PAS stain) [6]: significantly reduced inflammatory cells and goblet cells | airway hyperresponsiveness to methacholine (airway resistance and airway elastance) [7]: significantly reduced airway hyperresponsiveness
